# Test results taken from ChEMBL document CHEMBL3259791, “Discovery of (E)-3-((styrylsulfonyl)methyl)pyridine and (E)-2-((styrylsulfonyl)methyl)pyridine derivatives as anticancer agents: synthesis, structure-activity relationships, and biological activities” (J Med Chem, 2014).
# Calls of active or inactive are those of the source. No cut-off for these calls is given here.
# Experiments:
# MCF7 = assay: Antiproliferative activity against human MCF7 cells assessed as cell growth inhibition after 72 hrs by MTT assay; format: functional; conditions: MCF7, 72 h
# A2780 [1] = assay: Antiproliferative activity against human A2780 cells assessed as cell growth inhibition after 72 hrs by MTT assay; format: functional; conditions: A2780, 72 h
# HCT-116 = assay: Antiproliferative activity against human HCT116 cells assessed as cell growth inhibition after 72 hrs by MTT assay; format: functional; conditions: HCT-116, 72 h
# A2780 [2] = assay: Induction of apoptosis in human A2780 cells assessed as caspase-3/7 activation at […] after 24 hrs by using Apo-ONE homogeneous caspase-3/7 kit; format: functional, cell-based
# A2780 [3] = assay: Reduction in Mcl1 level in human A2780 cells at […] after 24 hrs by Western blot analysis; format: functional, cell-based
# WI-38 = assay: Induction of apoptosis in human WI38 cells assessed as caspase-3/7 activation up to 1 uM after 24 hrs by using Apo-ONE homogeneous caspase-3/7 kit; format: functional, cell-based
# A2780 [4] = assay: Reduction in CDC25C level in human A2780 cells at […] after 24 hrs by Western blot analysis; format: functional, cell-based
Structure (SMILES),GI50 (MCF7),GI50 (A2780 [1]),GI50 (HCT-116),Activity (A2780 [2]),inhibition (A2780 [3]),Activity (WI-38),inhibition (A2780 [4])
CCCS(=O)(=O)Nc1cc(CS(=O)(=O)/C=C/c2c(OC)cc(OC)cc2OC)cnc1OC,> 10 µM,> 10 µM,> 10 µM,–,–,–,–
COc1cc(OC)c(/C=C/S(=O)(=O)Cc2ccc(OC)c([N+](=O)[O-])n2)c(OC)c1,9.97 µM,> 10 µM,> 10 µM,–,–,–,–
COc1cc(OC)c(C(C(c2cnc(OC)c([N+](=O)[O-])c2)S(C)(=O)=O)N2CCCCC2)c(OC)c1 (stereo not drawn),6.41 µM,–,4.4 µM,–,–,–,–
COc1cc(OC)c(/C=C/S(=O)(=O)Cc2ccc(OC)c(NCC(=O)O)c2)c(OC)c1,–,–,–,Active,Active,inactive,Active
COc1cc(OC)c(/C=C/S(=O)(=O)Cc2cnc(OC)c(NCC(N)=O)c2)c(OC)c1,> 10 µM,–,6.59 µM,–,–,–,–

# Continued, in another order:
GI50 (MCF7),GI50 (A2780 [1]),GI50 (HCT-116),Structure (SMILES),Activity (A2780 [2]),inhibition (A2780 [3]),Activity (WI-38),inhibition (A2780 [4])
5.71 µM,6.91 µM,5.45 µM,CCOC(=O)CNc1nc(CS(=O)(=O)/C=C/c2c(OC)cc(OC)cc2OC)ccc1OC,–,–,–,–
0.545 µM,0.253 µM,0.329 µM,COc1cc(OC)c(/C=C/S(=O)(=O)Cc2ccc(OC)c(NCC(=O)O)n2)c(OC)c1,–,–,–,–
0.94 µM,0.409 µM,0.517 µM,CCOC(=O)CNc1cc(CS(=O)(=O)/C=C/c2c(OC)cc(OC)cc2OC)cnc1OC,–,–,–,–
